Experimental findings from ChEMBL document CHEMBL5154919, “New ZW4864 Derivatives as Small-Molecule Inhibitors for the β-Catenin/BCL9 Protein-Protein Interaction” (ACS Med Chem Lett, 2022) are described below.

The target in the assay is T1, beta-catenin-B-cell lymphoma 9 protein complex (Homo sapiens, UniProt P35222).
T1 sequence (P35222 whole entry): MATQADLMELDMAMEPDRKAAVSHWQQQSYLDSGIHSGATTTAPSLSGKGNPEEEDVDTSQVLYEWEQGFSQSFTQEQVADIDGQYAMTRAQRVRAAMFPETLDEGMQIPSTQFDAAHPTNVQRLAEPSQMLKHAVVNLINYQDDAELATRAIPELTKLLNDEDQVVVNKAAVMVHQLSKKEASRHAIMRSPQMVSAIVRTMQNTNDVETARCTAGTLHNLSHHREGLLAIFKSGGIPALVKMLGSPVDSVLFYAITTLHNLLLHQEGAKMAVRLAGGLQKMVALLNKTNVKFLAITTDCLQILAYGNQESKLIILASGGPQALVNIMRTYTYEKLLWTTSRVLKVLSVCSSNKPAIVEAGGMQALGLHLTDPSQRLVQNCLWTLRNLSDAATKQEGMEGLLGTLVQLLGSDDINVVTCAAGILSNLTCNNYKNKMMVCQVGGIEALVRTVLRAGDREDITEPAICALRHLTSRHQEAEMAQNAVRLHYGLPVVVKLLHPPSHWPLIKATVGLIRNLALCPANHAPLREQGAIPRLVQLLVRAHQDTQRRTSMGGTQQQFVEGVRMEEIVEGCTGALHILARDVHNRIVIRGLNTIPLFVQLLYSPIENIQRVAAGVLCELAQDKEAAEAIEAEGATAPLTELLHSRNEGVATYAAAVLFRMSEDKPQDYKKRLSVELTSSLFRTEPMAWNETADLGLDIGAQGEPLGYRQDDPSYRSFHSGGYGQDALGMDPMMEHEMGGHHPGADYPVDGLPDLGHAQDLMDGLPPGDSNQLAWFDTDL
T1 sequence (O00512 whole entry): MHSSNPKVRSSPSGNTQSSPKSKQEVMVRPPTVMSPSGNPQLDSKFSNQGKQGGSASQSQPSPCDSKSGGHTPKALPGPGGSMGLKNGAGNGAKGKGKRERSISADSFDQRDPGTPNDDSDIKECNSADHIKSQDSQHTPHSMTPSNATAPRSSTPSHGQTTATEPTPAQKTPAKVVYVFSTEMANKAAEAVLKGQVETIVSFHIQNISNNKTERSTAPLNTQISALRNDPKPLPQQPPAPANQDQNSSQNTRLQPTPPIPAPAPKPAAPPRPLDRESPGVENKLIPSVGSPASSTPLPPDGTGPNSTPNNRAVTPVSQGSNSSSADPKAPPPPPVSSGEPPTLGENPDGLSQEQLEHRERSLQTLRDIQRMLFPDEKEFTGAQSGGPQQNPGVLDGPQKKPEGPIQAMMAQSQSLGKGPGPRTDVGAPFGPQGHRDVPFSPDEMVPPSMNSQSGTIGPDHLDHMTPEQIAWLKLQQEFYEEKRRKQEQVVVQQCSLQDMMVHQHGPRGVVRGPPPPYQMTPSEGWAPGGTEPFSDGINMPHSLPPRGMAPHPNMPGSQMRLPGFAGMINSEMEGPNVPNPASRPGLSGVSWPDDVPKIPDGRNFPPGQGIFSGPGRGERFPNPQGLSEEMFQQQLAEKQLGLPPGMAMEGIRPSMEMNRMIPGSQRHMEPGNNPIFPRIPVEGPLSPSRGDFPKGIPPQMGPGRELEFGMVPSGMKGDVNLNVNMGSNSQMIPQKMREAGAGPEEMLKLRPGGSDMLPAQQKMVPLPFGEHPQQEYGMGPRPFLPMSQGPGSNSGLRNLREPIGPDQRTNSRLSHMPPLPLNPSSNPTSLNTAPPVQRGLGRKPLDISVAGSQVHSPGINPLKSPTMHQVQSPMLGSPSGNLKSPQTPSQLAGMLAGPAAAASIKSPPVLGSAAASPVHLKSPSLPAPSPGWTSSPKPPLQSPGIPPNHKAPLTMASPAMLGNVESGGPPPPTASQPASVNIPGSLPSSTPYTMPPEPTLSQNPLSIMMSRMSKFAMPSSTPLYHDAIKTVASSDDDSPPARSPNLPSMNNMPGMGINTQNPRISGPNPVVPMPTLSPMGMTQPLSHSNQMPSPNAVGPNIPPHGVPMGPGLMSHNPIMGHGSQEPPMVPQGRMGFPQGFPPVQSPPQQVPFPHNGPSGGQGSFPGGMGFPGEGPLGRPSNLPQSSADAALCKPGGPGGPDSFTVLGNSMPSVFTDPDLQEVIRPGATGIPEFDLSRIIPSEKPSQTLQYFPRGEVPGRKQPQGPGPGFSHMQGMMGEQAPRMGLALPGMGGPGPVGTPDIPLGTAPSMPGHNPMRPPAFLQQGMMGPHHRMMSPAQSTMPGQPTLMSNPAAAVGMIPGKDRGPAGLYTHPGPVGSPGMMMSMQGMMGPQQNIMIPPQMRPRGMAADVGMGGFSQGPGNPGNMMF
The experiment in a line: Inhibition of full length beta-catenin (1 to 781 residues) (unknown origin) expressed in Escherichia coli BL21 (DE3)-N-terminal biotinylated human BCL9 (350 to 375 residues) protein-protein interaction incubated for 1 hr by Alphascreen assay. On the technique in general: Bead proximity is the source of the signal in Alpha formats.

Take `CC(C)(Oc1cccc(N2CCC[C@@H](C(=O)N(Cc3ccc(-c4cnc5[nH]ccc5c4)cc3)C3CC3)C2)c1)C(=O)N1CCNCC1.Cl`: inhibition was half-maximal at 3.4 µM (IC50) and the Ki (in general, the equilibrium dissociation constant of an inhibitor or competing ligand from its target) amounted to 2.7 µM.
